{
  "source": "patent US20200054646A1",
  "about": "“USE OF PHENOTHIAZINE DERIVATIVE IN THE TREATMENT OF INFECTIOUS PURPURA OR PURPURA FULMINANS” (priority 2016, published 2020)",
  "key": {"[1]": {"tested_on": "N. meningitidis 2C4.3 bacterial aggregates", "test": "microbe, parasite or virus in culture", "type": "cell-based, Neisseria meningitidis", "procedure": "N. meningitidis 2C4.3 was grown in liquid culture at 10^7 CFU/ml for 2 h to form bacterial aggregates and were treated with increasing concentrations of Trifluoperazine (10 to 40 μM), Gentamicin (150 μg/ml) or cefotaxim (20 μg/ml) for 20 minutes and bacterial aggregates were immediately visualized using a phase-contrast microscope. […] (B) Quantification of the bacterial aggregation was performed using Image J software.\nN. meningitidis 2C4.3 wild type strain and the isogenic derivative mutant PilT ([…]PilT) were grown in liquid culture at 10^7 CFU/ml for 2 h to form bacterial aggregates and then treated with 50 μM Trifluoperazine. Time lapse phase-contrast video microscopy was performed to visualize the effect on bacterial aggregates over time. Images were taken at the indicated time points of the video.\nN. meningitidis 2C4.3 was grown in liquid culture at 10^7 CFU/ml for 2 h to form bacterial aggregates and were treated with 30 μM Trifluoperazine for 30 minutes to induce bacterial dispersion or PBS as a control. The medium was replaced to remove the Trifluoperazine and the reformation of bacterial aggregates were visualized overtime using a phase-contrast microscope.\nFIG. 7. […] Bacteria were grown in suspension for 2 h then Phenothiazine derivatives were added at the indicated concentrations.\nN. meninigitidis 2C4.3 strain was grown in suspension in wells of a 24 well plate, containing 1 ml of DMEM medium supplemented with 10% heat-inactivated fetal calf serum. After 2 h of growth, Trifluoperazine (or control vehicle) was added at various concentrations ranging from 10 to 40 μM for 20 min and the bacterial aggregates were visualized over time using a phase-contrast microscope.\nN. meninigitidis 2C4.3 strain was grown in suspension in wells of a 24 well plate, containing 1 ml of DMEM medium supplemented with 10% heat-inactivated fetal calf serum. After 2 h of growth, various concentrations (0.5 to 80 μM) of phenothiazine-derivative compounds or control vehicle (PBS or DMSO) were added to the wells for 30 min and the bacterial aggregates were visualized using a phase-contrast microscope.\nWere tested phenothiazine-derivative compounds of: • the Piperazine group: Trifluoperazine (Sigma #T8516), Fluphenazine (Sigma #F4765), Prochlorperazine (Sigma #P9178) Perphenazine (Sigma #P6402); • the Piperidine group: Thioridazine (Sigma #T9025) and Mesoridazin (Sigma #M4068); • the Aliphatic group: Chlorpromazine (Sigma #C8138), Promazine (Sigma #P6656), Triflupromazine (Sigma #1686003) and levomepromazine (Sigma #L0500000)."}, "[2]": {"tested_on": "meningococcal colonization of the human dermal vasculature", "test": "In vivo infection of mice engrafted with human skin"}, "[3]": {"tested_on": "Nm2C4.3 microcolonies on HCMEC/D3", "type": "cell-based, Neisseria meningitidis", "quoted_text": "HCMEC/D3, a well-established human brain endothelial cell line (Weksler et at, 2013) was grown in EBM-2 basal medium (Lonza, Walkersville, Md., USA) supplemented with 5% Fetal Bovine Serum “Gold”, 10 mM HEPES (PAA Laboratories GmbH, Pasching, Austria), 1% Penicillin-Streptomycin, 1% chemically defined lipid concentrate (Invitrogen Ltd, Paisley, UK), 1.4 μM hydrocortisone, 5 μg·ml^−1 ascorbic acid and 1ng·ml^−1 bFGF (Sigma-Aldrich, St. Louis, Mo.). Cells were grown on Thermanox coverslips coated with rat collagen I for 4 days at 37° C. in a humidified incubator in 5% CO2. Cells were then infected with a suspension of Nm2C4.3 (˜10^7 CFU/ml) in EBM2/FBS during 30 minutes to allow bacterial adhesion. Cells were then washed three times with medium to remove non-adherent bacteria and infection was pursued for 1 h 30: adherent bacteria grew at the endothelial cell surface and formed micro-colonies. Trifluoperazine was then added to obtain final concentrations of 10, 20, 30 and 40 μM. After incubation for 30 minutes, cells were washed and fixed in 4% Paraformaldehyde for 10 min, washed three times with PBS, and permeabilized with 0.1% Triton X-100 in PBS for 10 min. […] Quantification was done with ImageJ software (NIH). […]"}, "[4]": {"tested_on": "Enteropathogenic Escherichia Coli (EPEC escN mutant, GFP) microcolonies on HBMEC", "test": "Dispersion of EPEC microcolonies at the surface of human endothelial cells", "type": "cell-based", "settings": "10 to 50 μM, 30 min, dose-dependent", "procedure": "Human bone marrow microvascular endothelial cells (HBMEC) were infected with a GFP-expressing mutant Enteropathogenic Escherichia Coli, which lacks the ATPase escN (EPEC […]escN-GFP) for 2 h, then treated with Trifluoperazine (10-50 μM) for 30 minutes, before fixation and immunofluorescence analysis using Alexa Fluor 633 Phalloidin. (A) Representative fluorescence microscopy showing bacterial colony (white dots) formed at the surface of the endothelial cells. (B) Quantification of the bacterial colonization was performed using Image J software.\nHBMEC were grown on Thermanox coverslips coated with gelatin 2% for 2 days to reach confluency. Cells were then infected for 1 h with a GFP-expressing mutant Enteropathogenic Escherichia Coli (EPEC), which lacks the ATPase escN. This strain is unable to translocate effector proteins and is more prone to form pilus-dependent microcolony at the host cell surface (Jensen et al., 2015). Cells were then washed three times with medium to remove non-adherent bacteria and infection was pursued for 1 extra hour, to allow bacterial growth at the endothelial cell surface to form microcolonies. Trifluoperazine was then added to obtain final concentrations of 10, 20, 30 and 50 μM. After incubation for 30 minutes, cells were washed and fixed in 4% Paraformaldehyde for 10 min, washed three times with PBS. […] Quantification was done with ImageJ software (NIH). […]"}, "[5]": {"tested_on": "Nm2C4.3 adhesion to human dermal microvascular endothelial cells (HDMECs)", "test": "Meningococcal adhesion to endothelial cells after pretreatment of bacteria", "type": "cell-based, Neisseria meningitidis", "settings": "bacteria pre-treated with 30 μM for 30 minutes", "procedure": "Nm2C4.3 grown in suspension were pretreated in the absence or in the presence of 30 μM Trifluoperazine for 30 minutes before adhesion to human dermal microvascular endothelial cells (HDMECs) for 30 minutes. Infection was allowed to proceed for further 30, 60 or 90 minutes before fixation and immunostaining using anti-Nm2C4.3 antibody and Alexa Fluor 633 Phalloidin. (A) Representative fluorescence microscopy showing bacterial colony (white dots) formed at the surface of the endothelial cells. (B) Quantification of the bacterial colonization was performed using Image J software."}, "[6]": {"tested_on": "meningococcal colonization of human brain vessels", "set-up": "species or system Neisseria meningitidis", "settings": "40 μM for 30 min", "source_text": "Fresh human brain sections were obtained from frontal lobe specimens of macroscopically and histologically normal brain (confirmed by a neuropathologist) of individuals referred to the Department of Forensic Medicine for unexplained out-of-hospital sudden death (consent forms ML1094, PFS 10-008, ClinicalTrials.gov NCT00320099 from The Institutional Review Boards of the Poincare Hospital, Versailles-Saint Quentin University and the French “Agence de la Biomédecine”). After freezing of the brain tissue with isopentane cooled in liquid nitrogen, the sections, 7 μm thick, containing leptomeninges, cortical ribbon and the underlying white matter were immobilised on Superfrost™ plus microscope slides and stored at −80° C. […] Adherent meningococci were detected by immunofluorescence analysis: brain sections were incubated with the following primary antibodies for 2 h in PBS/BSA 0.1%: monoclonal anti-human CD31/PECAM-1 mouse monoclonal antibody (clone HEC7, ABCAM, ab119339) and a rabbit polyclonal serum anti-Nm 2C4.3 strain (1:3000). […] Entire samples were scanned using a Lamina (Perkin Helmer) and were further analysed using confocal microscopy (spinning disk Leica, 63×). Quantification analysis of the images (n=50 per section) was performed using ImageJ software (NIH). […]"}},
  "data": [
    {"compound": "CN[C@@H]1[C@@H](O)C(O[C@@H]2[C@@H](O)[C@H](O[C@H]3O[C@H]([C@@H](C)NC)CC[C@H]3N)[C@@H](N)C[C@H]2N)OC[C@]1(C)O", "note": "(stereo partly drawn) [Gentamicin, (3R,4R,5R)-2-{[(1S,2S,3R,4S,6R)-4,6-diamino-3-{[(2R,3R,6S)-3-amino-6-[(1R)-1-(methylamino)ethyl]oxan-2-yl]oxy}-2-hydroxycyclohexyl]oxy}-5-methyl-4-(methylamino)oxane-3,5-diol]", "values": [
      {"measurement": "dispersion of bacterial aggregates formed in suspension", "setting": "[1]; Gentamicin 150 μg/ml, 20 minutes", "value": "did not significantly induce the dispersion"}
    ]},
    {"compound": "CN1CCN(CCCN2c3ccccc3Sc3ccc(C(F)(F)F)cc32)CC1", "note": "[Trifluoperazine]", "values": [
      {"measurement": "colonization of the human dermal vasculature", "setting": "[2]; mice engrafted with human skin", "value": "prevents the massive colonization"},
      {"measurement": "incidence of vascular alteration", "setting": "[2]; mice engrafted with human skin", "value": "reduces incidence of vascular alteration"},
      {"measurement": "signs of intravascular coagulation", "setting": "[2]; mice engrafted with human skin", "value": "reduces the signs of intravascular coagulation"},
      {"measurement": "hallmark of vascular inflammation", "setting": "[2]; trifluoperazine alone or in combination with cefotaxime", "value": "drastically reduced"},
      {"measurement": "reversibility of the effect on aggregation upon removal", "setting": "[1]; 30 μM for 30 minutes, then medium replaced", "value": "reversible"},
      {"measurement": "dispersion of bacterial aggregates pre-formed for two hours", "setting": "[1]; 10 to 40 μM, 20 min", "value": "induced their dispersion"},
      {"measurement": "concentration range of dose-dependent dispersion of aggregates", "setting": "[1]; 20 min treatment, suspension", "value": "10 to 40", "unit": "µM"},
      {"measurement": "EC80", "setting": "[1]; Neisseria meningitidis, 0.5 h, read-out: Concentration promoting efficient meningococcal dispersal (~80%)", "value": 30, "unit": "µM"},
      {"measurement": "time after addition at which dispersion occurs", "setting": "[1]; time lapse video microscopy, 50 μM", "value": "10 to 15", "unit": "min"},
      {"measurement": "concentration range of dose-dependent microcolony dispersion", "setting": "[3]; 30 min, HCMEC/D3", "value": "10 to 40", "unit": "µM"},
      {"measurement": "dispersion of microcolonies on human brain endothelial cells", "setting": "[3]; treatment for 30 min", "value": "induced their dispersion"},
      {"measurement": "dispersion of EPEC microcolonies", "setting": "[4]", "value": "induced the dispersion"},
      {"measurement": "adhesion / colony formation at the endothelial cell surface by pre-treated bacteria", "setting": "[5]", "value": "did no longer adhere"},
      {"measurement": "reduction of vascular colonization of the human brain vessels", "setting": "[6]", "value": 80, "unit": "%"}
    ]}
  ]
}
